These results are taken from patent US11458123B2 (Arvinas, Inc., priority 2016, dated 2022).

One experiment relates to tau protein. The experiment can be described thus: Tau protein in vitro degradation assay (Western blot, Tau-13 antibody). Format: cell-based, human. The note with it: SK-N-SH cells; 72 hours of incubation; tested at 300 nM, 100 nM, 33 nM and 11 nM; Western blot, Tau-13 antibody. The procedure, abridged:
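SK-N-SH cells, seeded ≥18 h beforehand, were incubated 72 h with tau PROTACs at 1000, 300 and 100 nM or at 300, 100, 33 and 11 nM. Lysates in protease-inhibitor buffer were resolved by SDS-PAGE; tau quantified by Western blot with Tau-13 antibody recognising all human tau forms.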
(A western blot detects proteins with antibodies after separation by electrophoresis.)
For `Cn1c2ccncc2c2ccc(-c3ccc(O[C@H]4C[C@H](OCCCCCOC(CC5CN(c6ccc7c(c6)C(=O)N(C6CCC(=O)NC6=O)C7=O)C5)C(F)(F)F)C4)nc3)cc21` (some centres unmarked) [Compound 153, 2-(2,6-dioxopiperidin-3-yl)-5-(3-(3,3,3-trifluoro-2-((5-((1r,3r)-3-((5-(5-methyl-5H-pyrido[4,3-b]indol-7-yl)pyridin-2-yl)oxy)cyclobutoxy)pentyl)oxy)propyl)azetidin-1-yl)isoindoline-1,3-dione], the “Degradation activity* (highest amount of degradation observed at any dosage; tau protein remaining)” value is “B (≤80% and >50% tau protein remaining after 72 hours of incubation with the test compound)”.
`Cn1c2ccncc2c2ccc(-c3ccc(O[C@H]4C[C@H](OCCOCCOC5CN(c6ccc7c(c6)C(=O)N(C6CCC(=O)NC6=O)C7=O)C5)C4)nc3)cc21` (some centres unmarked) [Compound 163, 2-(2,6-dioxopiperidin-3-yl)-5-(3-(2-(2-((1r,3r)-3-((5-(5-methyl-5H-pyrido[4,3-b]indol-7-yl)pyridin-2-yl)oxy)cyclobutoxy)ethoxy)ethoxy)azetidin-1-yl)isoindoline-1,3-dione]: the “Degradation activity* (highest amount of degradation observed at any dosage; tau protein remaining)” value is listed as “C (>80% tau protein remaining after 72 hours of incubation with the test compound)”.
Take `O=C1CCC(N2C(=O)c3cc(F)c(OCCOCCOCCOCCOCCOc4ccc(-c5ccc6c(c5)[nH]c5ccncc56)cn4)cc3C2=O)C(=O)N1` (centres unmarked) [Compound 81, 5-((14-((5-(5H-pyrido[4,3-b]indol-7-yl)pyridin-2-yl)oxy)-3,6,9,12-tetraoxatetradecyl)oxy)-2-(2,6-dioxopiperidin-3-yl)-6-fluoroisoindoline-1,3-dione]: the “Degradation activity* (highest amount of degradation observed at any dosage; tau protein remaining)” value was “A (≤50% tau protein remaining after 72 hours of incubation with the test compound)”.
Take `Cn1c2ccncc2c2ccc(-c3ccc(OC4CC5(C4)CN(CCOCCCOC4CN(c6ccc7c(c6)C(=O)N(C6CCC(=O)NC6=O)C7=O)C4)C5)nc3)cc21` (centres unmarked) [Compound 211, 2-(2,6-dioxopiperidin-3-yl)-5-(3-(3-(2-(6-((5-(5-methyl-5H-pyrido[4,3-b]indol-7-yl)pyridin-2-yl)oxy)-2-azaspiro[3.3]heptan-2-yl)ethoxy)propoxy)azetidin-1-yl)isoindoline-1,3-dione]: the “Degradation activity (tau protein remaining; highest amount of degradation observed at any dosage)” value is on record as “C (>80% tau protein remaining after 72 hours of incubation with the test compound)”.
With `Cn1c2ccncc2c2ccc(-c3ccc(OC4CC5(C4)CN(C(=O)COCCCOC4CN(c6ccc7c(c6)C(=O)N(C6CCC(=O)NC6=O)C7=O)C4)C5)nc3)cc21` (centres unmarked) [Compound 193, 2-(2,6-dioxopiperidin-3-yl)-5-(3-(3-(2-(6-((5-(5-methyl-5H-pyrido[4,3-b]indol-7-yl)pyridin-2-yl)oxy)-2-azaspiro[3.3]heptan-2-yl)-2-oxoethoxy)propoxy)azetidin-1-yl)isoindoline-1,3-dione], the “Degradation activity (tau protein remaining; highest amount of degradation observed at any dosage)” value is “B (≤80% and >50% tau protein remaining after 72 hours of incubation with the test compound)”.
Regarding `Cn1c2ccncc2c2ccc(-c3cnc(OCCOCCOCCOCCOCCOc4ccc5c(c4)C(=O)N(C4CCC(=O)NC4=O)C5=O)c(Cl)c3)cc21` (centres unmarked) [Compound 92, 5-((14-((3-chloro-5-(5-methyl-5H-pyrido[4,3-b]indol-7-yl)pyridin-2-yl)oxy)-3,6,9,12-tetraoxatetradecyl)oxy)-2-(2,6-dioxopiperidin-3-yl)isoindoline-1,3-dione], the “Degradation activity* (highest amount of degradation observed at any dosage; tau protein remaining)” value is given as “A (≤50% tau protein remaining after 72 hours of incubation with the test compound)”.
Take `Cn1c2ccncc2c2ccc(-c3ccc(OC4CN(CCCCCOCCCCCOc5ccc6c(c5)C(=O)N(C5CCC(=O)NC5=O)C6=O)C4)nc3)cc21` (centres unmarked) [Compound 106, 2-(2,6-dioxopiperidin-3-yl)-5-((5-((5-(3-((5-(5-methyl-5H-pyrido[4,3-b]indol-7-yl)pyridin-2-yl)oxy)azetidin-1-yl)pentyl)oxy)pentyl)oxy)isoindoline-1,3-dione]: the “Degradation activity* (highest amount of degradation observed at any dosage; tau protein remaining)” value is “B (≤80% and >50% tau protein remaining after 72 hours of incubation with the test compound)”.
With `Cn1c2ccncc2c2ccc(-c3ccc(O[C@H]4C[C@H](OCCCCCN5CCN(c6ccc7c(c6)C(=O)N(C6CCC(=O)NC6=O)C7=O)CC5)C4)nc3)cc21` (some centres unmarked) [Compound 68, 2-(2,6-dioxopiperidin-3-yl)-5-(4-(5-((1r,3r)-3-((5-(5-methyl-5H-pyrido[4,3-b]indol-7-yl)pyridin-2-yl)oxy)cyclobutoxy)pentyl)piperazin-1-yl)isoindoline-1,3-dione], the “Degradation activity* (highest amount of degradation observed at any dosage; tau protein remaining)” value is “C (>80% tau protein remaining after 72 hours of incubation with the test compound)”.
On the same count and under the same terms, next, `O=C1CCC(N2C(=O)c3ccc(OCCCCCOC4CCN(C(=O)[C@H]5C[C@@H](Oc6ccc(-c7ccc8c(c7)[nH]c7ccncc78)cn6)C5)CC4)cc3C2=O)C(=O)N1` (some centres unmarked) [Compound 166, 5-((5-((1-((1r,3r)-3-((5-(5H-pyrido[4,3-b]indol-7-yl)pyridin-2-yl)oxy)cyclobutane-1-carbonyl)piperidin-4-yl)oxy)pentyl)oxy)-2-(2,6-dioxopiperidin-3-yl)isoindoline-1,3-dione]: “C (>80% tau protein remaining after 72 hours of incubation with the test compound)”; `Cn1c2ccncc2c2ccc(-c3ccc(OCCCOc4ccc(C#CCCCCOc5ccc6c(c5)C(=O)N(C5CCC(=O)NC5=O)C6=O)cn4)nc3)cc21` (centres unmarked) [Compound 146, 2-(2,6-dioxopiperidin-3-yl)-5-((6-(6-(3-((5-(5-methyl-5H-pyrido[4,3-b]indol-7-yl)pyridin-2-yl)oxy)propoxy)pyridin-3-yl)hex-5-yn-1-yl)oxy)isoindoline-1,3-dione]: “C (>80% tau protein remaining after 72 hours of incubation with the test compound)”.

Still in this experiment, the particulars now being: SK-N-SH cells; 72 hours of incubation; tested at 1000 nM, 300 nM and 100 nM.
As to `O=C1CCC(N2Cc3c(NCCOCCOCCOCCOCCOc4ccc(-c5ccc6c(c5)[nH]c5ccncc56)cn4)cccc3C2=O)C(=O)N1` (centres unmarked) [Compound 49, 3-(4-((14-((5-(5H-pyrido[4,3-b]indol-7-yl)pyridin-2-yl)oxy)-3,6,9,12-tetraoxatetradecyl)amino)-1-oxoisoindolin-2-yl)piperidine-2,6-dione], the “Activity* (highest amount of degradation observed at any dosage, as tau protein remaining)” value is “A (≤50% tau protein remaining after 72 hours of incubation with the test compound)”.
Turning to `CN(C)c1ccc(-c2ccc3cc(OCC(O)COCCOCCOCCNc4cccc5c4C(=O)N(C4CCC(=O)NC4=O)C5=O)ccc3n2)cc1` (centres unmarked) [Compound 47, 4-(2-(2-(2-(3-(2-(4-(dimethylamino)phenyl)quinolin-6-yloxy)-2-hydroxypropoxy)ethoxy)ethoxy)ethylamino)-2-(2,6-dioxopiperidin-3-yl)isodoline-1,3-dione], the “Activity* (highest amount of degradation observed at any dosage, as tau protein remaining)” value was “C (>80% tau protein remaining after 72 hours of incubation with the test compound)”.
The same measure, in the same setting: in the case of `Cc1ncsc1-c1ccc(CNC(=O)[C@@H]2C[C@@H](O)CN2C(=O)[C@@H](NC(=O)COCCOCCOCC(=O)N2CCN(c3ccn4c(n3)nc3ccccc34)CC2)C(C)(C)C)cc1` [Compound 10] it was “C (>80% tau protein remaining after 72 hours of incubation with the test compound)”.
As to `Cc1ncoc1-c1ccc(CNC(=O)[C@@H]2C[C@@H](O)CN2C(=O)[C@@H](NC(=O)COCCOCCOCCN2CCN(c3ccn4c(n3)nc3ccccc34)CC2)C(C)(C)C)cc1` [Compound 11, (2S,4R)-1-((S)-14-(4-(benzo[4,5]imidazo[1,2-a]pyrimidin-2-yl)piperazin-1-yl)-2-(tert-butyl)-4-oxo-6,9,12-trioxa-3-azatetradecanoyl)-4-hydroxy-N-(4-(4-methyloxazol-5-yl)benzyl)pyrrolidine-2-carboxamide], the “Activity* (highest amount of degradation observed at any dosage, as tau protein remaining)” value is on record as “C (>80% tau protein remaining after 72 hours of incubation with the test compound)”.
Take `Cc1ncoc1-c1ccc([C@H](C)NC(=O)[C@@H]2C[C@@H](O)CN2C(=O)[C@@H](NC(=O)COCCOCCOCCOCCN2CCN(c3ccn4c(n3)nc3ccccc34)CC2)C(C)(C)C)cc1` [Compound 20, (2S,4R)-1-((S)-17-(4-(benzo[4,5]imidazo[1,2-a]pyrimidin-2-yl)piperazin-1-yl)-2-(tert-butyl)-4-oxo-6,9,12,15-tetraoxa-3-azaheptadecanoyl)-4-hydroxy-N—((S)-1-(4-(4-methyloxazol-5-yl)phenyl)ethyl)pyrrolidine-2-carboxamide]: the “Activity* (highest amount of degradation observed at any dosage, as tau protein remaining)” value is given as “C (>80% tau protein remaining after 72 hours of incubation with the test compound)”.
As to `Cc1ncsc1-c1ccc(CNC(=O)[C@@H]2C[C@@H](O)CN2C(=O)[C@@H](NC(=O)COCCCCCOc2ccc3nc(-c4ccc(N(C)C)cc4)ccc3c2)C(C)(C)C)cc1` [Compound 37, (2S,4R)-1-((S)-2-(2-(5-(2-(4-(dimethylamino)phenyl)quinolin-6-yloxy)pentyloxy)acetamido)-3,3-dimethylbutanoyl)-4-hydroxy-N-(4-(4-methylthiazol-5-yl)benzyl)pyrrolidine-2-carboxamide], the “Activity* (highest amount of degradation observed at any dosage, as tau protein remaining)” value is on record as “C (>80% tau protein remaining after 72 hours of incubation with the test compound)”.
The same measure, in the same setting: in the case of `Cc1ncoc1-c1ccc([C@H](C)NC(=O)[C@@H]2C[C@@H](O)CN2C(=O)[C@@H](NC(=O)COCCOCCOCC(=O)N2CCN(c3ccn4c(n3)nc3ccccc34)CC2)C(C)(C)C)cc1` [Compound 21, (2S,4R)-1-((S)-14-(4-(benzo[4,5]imidazo[1,2-a]pyrimidin-2-yl)piperazin-1-yl)-2-(tert-butyl)-4,14-dioxo-6,9,12-trioxa-3-azatetadecanoyl)-4-hydroxy-N—((S)-1-(4-(4-methyloxazol-5-yl)phenyl)ethyl)pyrrolidine-2-carboxamide] it was “C (>80% tau protein remaining after 72 hours of incubation with the test compound)”.
